# Source: patent publication US9409944B2, “Compositions and methods for inhibiting proteases” (The Regents of the University of California, priority 2011, dated 2016)
# Experiments:
# [1] = target: beta 5 subunit (chymotrypsin-like) of the Saccharomyces cerevisiae 20S proteasome (Saccharomyces cerevisiae, UniProt P30656); experiment: Inhibition of the beta 5 subunit (chymotrypsin-like) of the 20S proteasome; type: biochemical; settings: S. cerevisiae 20S proteasome, pure compound
# Source text: (§1) We discovered the new natural products, compounds having formulas 1 and 2, from a collection of marine cyanobacteria obtained from Curaçao in the Netherland Antilles. We were led to isolate this compound from cancer cell toxicity of the extract and semi-purified fractions.
# [2] = test system: human lung adenocarcinoma (H460) cells; experiment: Cytotoxicity to human lung adenocarcinoma (H460) cells; type: cell-based; settings: NCI-H460
# Source text: as §1
SMILES,IC50 [1] [nM],EC50 [2] [nM]
"C[C@@]12OC(=O)[C@]1([C@@H](O)[C@@H]1C=CCCC1)NC(=O)[C@@H]2CCCl [salinosporamide A, reference compound]",1.4 ± 0.2,–
CCCCCC(=O)N[C@H](C(=O)N[C@@H](CC[S+](C)[O-])C(=O)N[C@@H](CC(C)C)C(=O)[C@@]1(C)CO1)C(C)C (mixture of isomers) [Compound 1],5.3 ± 0.5,14.5
